Patent US20230287343A1, “METHOD FOR GENERATING A THREE-DIMENSIONAL NEUROMUSCULAR ORGANOID IN VITRO” (MAX-DELBRÜCK-CENTRUM FÜR MOLEKULARE MEDIZIN IN DER …, priority 2020, published 2023)
Entries after “also recorded” stand apart in the source; their conditions may differ.

Tests used:
[1] = tested on: neuromuscular organoids (NMOs); experiment: Microelectrode array (MEA) recording of NMO electrical activity; type: cell-based, human; conditions: for local (single electrode) firings / synchronous network activity (paired electrode spikes): NMDA and 5-HT stimulation at day 50; for rhythmic activity (central pattern generator-like): NMDA/5-HT cocktail; for activity triggered by the drugs (fictive locomotion paradigm): cocktail of NMDA (10 uM) and 5-HT (40 uM); for suppression of electrical activity: APV 50 uM and CNQX 40 uM applied together
[2] = tested on: neuromuscular organoids (NMOs); experiment: Contractile activity of NMOs before and after curare; type: cell-based, human; conditions: curare 10 uM, before and after treatment
Protocol: Video segments of equal length were recorded using a bright-field microscope (DMI1, Leica) in 3 different regions of the same organoid using 20× zoom. To quantify muscle contractions, each movie was analyzed separately where each visible contraction was counted and then averaged for the whole organoid.
To analyze and map organoid muscular contraction, bright field time series images were automatically thresholded using ImageJ software to identify organoid border. A binary stack was created and contractile regions were visually identified. Regions of interest were defined and variations of organoid area (in pixel), used as a proxy of physical contraction, were plotted over the time series.

NCCc1c[nH]c2ccc(O)cc12 [5-HT, Serotonin]
local (single electrode) firings [1]: increased single firings; also recorded: notable increase of local firings
synchronous network activity (paired electrode spikes) [1]: increase in paired electrode spikes; also recorded: dramatic increase of synchronous network activity
rhythmic activity (central pattern generator-like) ([1]; day 50 NMOs): activity became rhythmic; also recorded: produced rhythmic bursts of electrical activity
activity triggered by the drugs (fictive locomotion paradigm) [1]: instantaneously triggered strong activity

N[C@@H](CCCP(=O)(O)O)C(=O)O [APV]
suppression of electrical activity [1]: reversibly suppressed nearly all electrical activity

N#Cc1cc2[nH]c(=O)c(=O)[nH]c2cc1[N+](=O)[O-] [CNQX]
suppression of electrical activity [1]: reversibly suppressed nearly all electrical activity

CN[C@H](CC(=O)O)C(=O)O [NMDA]
local (single electrode) firings [1]: increased single firings; also recorded: notable increase of local firings
synchronous network activity (paired electrode spikes) [1]: increase in paired electrode spikes; also recorded: dramatic increase of synchronous network activity
rhythmic activity (central pattern generator-like) ([1]; day 50 NMOs): activity became rhythmic; also recorded: produced rhythmic bursts of electrical activity
activity triggered by the drugs (fictive locomotion paradigm) [1]: instantaneously triggered strong activity

N[C@@H](CCC(=O)O)C(=O)O [glutamate]
increase of spontaneous activity ([1]; acute glutamate 50 uM, day 30 and day 50 organoids): approximately 12 fold

NC1=N[C@H](O)[C@H]2[C@H]3O[C@]4(O)O[C@@H]([C@@H](O)[C@@]2(N1)[C@@H]4O)[C@]3(O)CO [tetrodotoxin]
suppression of NMDA/5-HT triggered activity [1]: reversibly suppressed

curare
contraction of the skeletal muscles (contractile activity of NMOs) [2]: blocked the contraction of the skeletal muscles; also recorded: organoid relaxation
block of acetylcholine-stimulated electrical activity ([1]; curare 10 uM, day 50 NMOs): rapidly and reversibly blocked
